Test results as given in the supplement of paper PMC8960247.
± gives the standard error.

Assays:
621-102 (TSC2-deficient) = assay: relative viability vs DMSO; higher = less cytotoxic; conditions: serum: 10% FBS, 72 h
621-103 (TSC2-rescued) = assay: as above; conditions: serum: 10% FBS, 72 h
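Also: immortalized renal angiomyolipoma cells stably carrying empty vector or TSC2, dosed in 384-well plates in DMEM, viability normalized to vehicle-treated wells within each plate.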

| Compound | relative viability (621-102 (TSC2-deficient); 0.0001 µM) [%] | relative viability (621-102 (TSC2-deficient); 0.001 µM) [%] | relative viability (621-102 (TSC2-deficient); 0.01 µM) [%] | relative viability (621-102 (TSC2-deficient); 0.1 µM) [%] | relative viability (621-102 (TSC2-deficient); 1 µM) [%] | relative viability (621-102 (TSC2-deficient); 10 µM) [%] | relative viability (621-103 (TSC2-rescued); 0.0001 µM) [%] | relative viability (621-103 (TSC2-rescued); 0.001 µM) [%] | relative viability (621-103 (TSC2-rescued); 0.01 µM) [%] | relative viability (621-103 (TSC2-rescued); 0.1 µM) [%] | relative viability (621-103 (TSC2-rescued); 1 µM) [%] | relative viability (621-103 (TSC2-rescued); 10 µM) [%] |
| --- | --- | --- | --- | --- | --- | --- | --- | --- | --- | --- | --- | --- |
| C=CC(=O)N1CCC[C@@H](n2nc(-c3ccc(Oc4ccccc4)cc3)c3c(N)ncnc32)C1 | 108 ± 3.1 | 99.6 ± 2.7 | 102 ± 1.1 | 108 ± 4.7 | 112.7 ± 0.33 | 110 ± 4.6 | 99.6 ± 3.6 | 97.1 ± 1.7 | 98.8 ± 1.5 | 103 ± 3 | 108.4 ± 0.78 | 105 ± 3.9 |
| CC(=O)c1c(C)c2cnc(Nc3ccc(N4CCNCC4)cn3)nc2n(C2CCCC2)c1=O | 103 ± 1.6 | 109.7 ± 0.24 | 110 ± 2.1 | 109 ± 5 | 115 ± 1.2 | 79 ± 4.2 | 102.3 ± 0.35 | 104.8 ± 0.95 | 100.9 ± 0.84 | 104.4 ± 0.59 | 106.6 ± 0.72 | 76.7 ± 1.6 |
| CC(C)(C(=O)NCC(F)(F)C(F)(F)F)C(=O)N[C@@H]1C(=O)Nc2ccccc2-c2ccccc21 | 110 ± 1.1 | 115 ± 1.2 | 119.5 ± 0.86 | 113.8 ± 0.66 | 114.3 ± 1.1 | 113 ± 1.8 | 102.1 ± 0.81 | 104 ± 1.3 | 104.2 ± 0.26 | 106 ± 1.1 | 103.7 ± 0.41 | 101.8 ± 0.77 |
| CC(C)(C)Cn1c(N)nc2ccc(-c3[nH]c(C(C)(C)C)nc3-c3ccc(F)cc3)nc21 | 100 ± 4.4 | 99.6 ± 4.4 | 100 ± 2.6 | 107 ± 4.4 | 99.1 ± 3.6 | 95.24 ± 0.28 | 94.2 ± 2.7 | 98.1 ± 2.3 | 97.1 ± 3.8 | 95.4 ± 1.8 | 93.7 ± 0.94 | 78.75 ± 0.41 |
| CC(C)CC(=O)Nc1n[nH]c2c1CN(C(=O)C1CCN(C)CC1)C2(C)C | 105.5 ± 0.63 | 109 ± 4 | 103 ± 2.3 | 93.5 ± 0.62 | 79 ± 1.2 | 13.5 ± 0.25 | 100.3 ± 0.33 | 101 ± 2 | 102 ± 1.2 | 102 ± 1.3 | 94.4 ± 1.7 | 22.5 ± 1.5 |
| CC(C)c1cc(-c2ccc(F)c3ccccc23)nc(N)n1 | 91.6 ± 2.5 | 107 ± 7 | 99.3 ± 4.8 | 94.6 ± 1.2 | 93.4 ± 2.1 | 97.22 ± 0.33 | 96.2 ± 4.6 | 92.2 ± 4.8 | 97.9 ± 1.5 | 107 ± 3.5 | 101.7 ± 0.2 | 98.4 ± 1.7 |
| CC1(C)C(=O)N(CCN2CCC(C(=O)c3ccc(F)cc3)CC2)c2ccccc21 | 102.5 ± 0.86 | 103 ± 1.4 | 97.2 ± 4.5 | 97.5 ± 1.1 | 97 ± 1.2 | 97.4 ± 5.7 | 101 ± 2.5 | 97.9 ± 4.5 | 96.93 ± 0.26 | 101 ± 4.7 | 96.7 ± 2 | 94.8 ± 1.9 |
| CC1(C)CC(=O)c2c(C(F)(F)F)nn(-c3ccc(C(N)=O)c(N[C@H]4CC[C@H](OC(=O)CN)CC4)c3)c2C1 | 63.2 ± 4.8 | 65.7 ± 8 | 36.9 ± 4.2 | 18.7 ± 2.5 | 13.6 ± 2.5 | 17 ± 1.1 | 108 ± 4.1 | 111.5 ± 0.33 | 82.7 ± 3.9 | 7.92 ± 0.44 | 6.41 ± 0.23 | 7.58 ± 0.32 |
| CC1=C(C(=O)Nc2cc3cn[nH]c3cc2F)C(c2ccc(C(F)(F)F)cc2)CC(=O)N1 (configuration not stated) | 121 ± 2.4 | 104 ± 2.5 | 104.73 ± 0.024 | 108 ± 2 | 106 ± 2.2 | 85.826 ± 0.053 | 99 ± 0.99 | 98.74 ± 0.16 | 101 ± 3.5 | 101.2 ± 0.43 | 99.79 ± 0.91 | 96.4 ± 2.7 |
| CN(C)Cc1ccc(-c2nc3cccc4c3n2CCNC4=O)cc1 | 125 ± 2.7 | 120.04 ± 0.068 | 127 ± 1.8 | 119 ± 5 | 118 ± 2.8 | 110 ± 1.7 | 103.8 ± 0.6 | 101.41 ± 0.034 | 102 ± 1.3 | 105 ± 1.6 | 103 ± 0.17 | 97.7 ± 0.77 |
| CN(c1ncccc1CNc1nc(Nc2ccc3c(c2)CC(=O)N3)ncc1C(F)(F)F)S(C)(=O)=O | 99.84 ± 0.61 | 105 ± 2.5 | 97.1 ± 2.1 | 101 ± 1.2 | 94.8 ± 5.8 | 47.7 ± 8.3 | 106 ± 4.2 | 94.4 ± 5.1 | 102 ± 0.37 | 100.6 ± 0.65 | 97.5 ± 6.1 | 38.2 ± 5.9 |
| CN1CCN(c2ccc([N+](=O)[O-])c3no[n+]([O-])c23)CC1 | 102 ± 5.5 | 101.2 ± 1 | 105 ± 1.3 | 102 ± 1.3 | 103 ± 1.9 | 88.03 ± 0.45 | 75 ± 4.3 | 82.8 ± 4.1 | 87.4 ± 5.2 | 98.8 ± 1.6 | 96 ± 2.7 | 65.3 ± 5 |
| CNC(=O)c1ccc(C)c(-n2c(C)cc(OCc3ccc(F)cc3F)c(Br)c2=O)c1 | 105 ± 5.5 | 101 ± 2.1 | 109.06 ± 0.1 | 109 ± 1.6 | 97.8 ± 1.9 | 103 ± 0.24 | 102 ± 4.2 | 102 ± 2.3 | 99 ± 1 | 97.6 ± 0.99 | 99.4 ± 1.4 | 95 ± 2.2 |
| CNCc1ccc(-c2[nH]c3cc(F)cc4c3c2CCNC4=O)cc1 | 130 ± 2.7 | 109 ± 3.2 | 128 ± 4.3 | 126 ± 4 | 120 ± 1.7 | 98.5 ± 1.6 | 104 ± 1.2 | 104 ± 1.1 | 104.8 ± 0.35 | 107.6 ± 0.23 | 111 ± 1.2 | 88 ± 1.9 |
| COC(=O)N1CCN(Cc2cccc(NC(=O)Nc3ccc(C)nc3)c2F)CC1 | 93.8 ± 5.1 | 94.7 ± 5.8 | 97.5 ± 0.16 | 96.33 ± 0.19 | 85.15 ± 0.1 | 95.3 ± 1.4 | 103 ± 5.3 | 111 ± 1.7 | 110 ± 1.2 | 101 ± 2.6 | 108 ± 2.7 | 104 ± 2.6 |
| COc1cc(Nc2ncc(F)c(Nc3ccc4c(n3)N(COP(=O)(O)O)C(=O)C(C)(C)O4)n2)cc(OC)c1OC | 111.5 ± 1.1 | 107.4 ± 0.97 | 106.9 ± 0.48 | 94.91 ± 0.5 | 87.5 ± 2 | 57.13 ± 0.27 | 103 ± 1.3 | 104.7 ± 0.53 | 101 ± 1.2 | 102 ± 5 | 78.9 ± 2.7 | 14.7 ± 0.48 |
| COc1cc(OC)c(/C=C/S(=O)(=O)Cc2ccc(OC)c(NCC(=O)O)c2)c(OC)c1 | 109 ± 2.7 | 109 ± 2.2 | 103.2 ± 0.43 | 97.9 ± 1.3 | 42 ± 1.4 | 30.9 ± 0.31 | 100.5 ± 0.4 | 99 ± 1.7 | 98.7 ± 1.2 | 97.9 ± 1.8 | 47.98 ± 0.052 | 24.1 ± 0.81 |
| COc1cc(OC)c(NC(=O)Nc2cc(C)on2)cc1Cl | 83.6 ± 4.5 | 92 ± 5 | 97.3 ± 3.8 | 89.4 ± 4.5 | 96.7 ± 7 | 92.8 ± 3.9 | 113 ± 2.2 | 109 ± 3.5 | 105 ± 3.8 | 113 ± 2.9 | 109 ± 2.6 | 111 ± 2.2 |
| COc1cc2ncnc(Nc3cccc(Br)c3)c2cc1OC | 96.7 ± 1 | 107 ± 3.8 | 115 ± 5.2 | 105.5 ± 0.2 | 107.6 ± 0.58 | 75.6 ± 6.2 | 102 ± 1.5 | 102 ± 1.7 | 103.2 ± 1 | 98.4 ± 2.3 | 101 ± 1.6 | 92.1 ± 4.8 |
| COc1ccc(-c2cc3c(C)nc(N)nc3n([C@H]3CC[C@H](OCCO)CC3)c2=O)cn1 | 101 ± 5.6 | 110 ± 2.5 | 91.2 ± 5 | 65.6 ± 0.94 | 26.7 ± 0.68 | 14.1 ± 0.26 | 92.8 ± 1.8 | 98.4 ± 2.6 | 88.1 ± 2.7 | 56.7 ± 2 | 30.52 ± 0.21 | 18.61 ± 0.18 |
| COc1ccc(-c2ccc3c(N4CCOCC4)nc(N4C[C@@H](C)O[C@@H](C)C4)nc3n2)cc1CO | 74.3 ± 2.3 | 78 ± 8.3 | 65.8 ± 4.5 | 81.3 ± 2.2 | 70.087 ± 0.057 | 27.6 ± 1.1 | 99.9 ± 3 | 88.657 ± 0.066 | 102.1 ± 0.57 | 104 ± 1.4 | 83.1 ± 2.7 | 41.9 ± 0.85 |
